Here are results for 17 compounds from US20090068719A1, “IMMUNOASSAYS, HAPTENS, IMMUNOGENS AND ANTIBODIES FOR ANTI-HIV THERAPEUTICS” (priority 2003, published 2009).

For data set [1] the following is noted: human, in vivo; cited from earlier work.
A further data set relates to HIV. As to conditions: cited from earlier work.
The test system of data set [2] is Anti-(D2)2. Description: Specificity of the lopinavir immunoassay (cross-reactivity). It is filed as binding, rabbit. Particulars: crossreactant 10 μg/mL + 5 μg/mL Lopinavir in human serum. Here is the method: An immunoassay for lopinavir was conducted on the Cobas Mira Chemistry Analyzer (Roche). […] The specificity of the immunoassay was evaluated by adding potentially crossreactant drugs to human serum and determining the increase in the apparent concentration as a result of the presence of crossreactant. […] Each sample was assayed in duplicate. Testing was performed on the Cobas Mira analyzer. The percentage concentration above 5 μg/mL of lopinavir was calculated for each crossreactant.

The conditions of data set [3]: human; cited from earlier work.
Data set [4] relates to Anti-(D2)2. In words: Homogeneous enzyme immunoassay for lopinavir, standard curve. The data set is classed as binding, rabbit. Particulars: Enzyme Conjugate (D2)/G6PDH Reagent. An excerpt: Enzyme Conjugate (D2)/G6PDH and Antibody Anti-(D2)2 were selected as exemplary materials for the development of a homogeneous enzyme immunoassay for the anti-HIV therapeutic lopinavir. Enzyme Conjugate (D2)/G6PDH Reagent, as described in Example 45, was used. Also antibody Anti-(D2)2 was used in this Example as part of an antibody reagent (“Anti-(D2)2 Antibody Reagent”) further comprising nicotinamide adenine dinucleotide, glucose-6-phosphate, sodium chloride, bulking agent, surfactant, and preservatives.
An immunoassay for lopinavir was conducted on the Cobas Mira Chemistry Analyzer (Roche). On the analyzer, 4 μL of sample plus 61 μL water were incubated for 300 sec with 150 μL of Anti-(D2)2 Antibody Reagent. Subsequently, 75 μL of the Enzyme Conjugate (D2)/G6PDH Reagent was added. After 25 sec incubation, enzyme activity was monitored by following the production of NADH spectrophotometrically at 340 nm for 50 sec.
A series of known concentrations of lopinavir standards (ranging from 0 to 10 μg/mL) were prepared gravimetrically in MES (2-(N-Morpholino)ethanesulfonic acid, 0.01 M, pH 5.5) formulated with EDTA, protein additive, detergent, antiform agent, and preservative. Similarly, quality control samples were prepared (1.0 and 5.0 μg/mL).
Lopinavir was dissolved in methanol to give a stock solution of 1000 μg/mL. Synthetic buffered calibrator matrix 10 mL aliquots were spiked to give lopinavir standards with concentrations shown in Table 4. A series of Anti-(D2)2 Antibody Reagents were prepared by adding antibody to antibody/substrate diluent. Each antibody/substrate reagent was assayed with Enzyme Conjugate (D2)/G6PDH Reagent. Calibration curves were generated on the Cobas Mira by assaying each level in duplicate.

For data set [5] the following is noted: rats or dogs; cited from earlier work.
The conditions of data set [6]: rat, dog, and human primary hepatocytes; cited from earlier work.

For the compound `Cc1cc(OC2OC(C(=O)O)C(O)C(O)C2O)nc2c1NC(=O)c1cccnc1N2C1CC1` (stereo not shown) [2-hydroxynevirapine glucuronide], the “Metabolite identified in urine” value in data set [1] was 18.6%.

As to `Cc1c(OC2OC(C(=O)O)C(O)C(O)C2O)cnc2c1NC(=O)c1cccnc1N2C1CC1` (stereo not shown) [3-hydroxynevirapine glucuronide], the “Metabolite identified in urine” value in data set [1] was 25.7%.

Consider `Cc1c(O)cnc2c1NC(=O)c1cccnc1N2C1CC1` [3-hydroxynevirapine], for which, in data set [1], the “Metabolite identified in urine” value is on record as 1.2%.

`COc1c(O)ccc(C(=O)N[C@@H](CSc2ccccc2)[C@H](O)CN2C[C@H]3CCCC[C@H]3C[C@H]2C(=O)NC(C)(C)C)c1C` [3′-methoxy-4′-hydroxynelfinavir]: the “EC50 relative to nelfinavir” value in the data set on HIV is “fivefold higher”.

As to `O=C1Nc2c(C(=O)O)ccnc2N(C2CC2)c2ncccc21` [4-carboxy-nevirapine], the “Metabolite identified in urine” value in data set [1] is 2.4%.

Regarding `Cc1ccnc2c1NC(=O)c1cc(OC3OC(C(=O)O)C(O)C(O)C3O)cnc1N2C1CC1` (stereo not shown) [8-hydroxynevirapine glucuronide], in data set [1], the “Metabolite identified in urine” value is recorded as 1.3%.

As to `O=C1Nc2c(COC3OC(C(=O)O)C(O)C(O)C3O)ccnc2N(C2CC2)c2ncccc21` (stereo not shown) [12-hydroxynevirapine glucuronide], the “Metabolite identified in urine” value in data set [1] is 23.7%.

In the case of `O=C1Nc2c(CO)ccnc2N(C2CC2)c2ncccc21` [12-hydroxynevirapine], the “Metabolite identified in urine” value in data set [1] is reported as 0.6%.

`CC(C)CN(C[C@@H](O)[C@H](Cc1ccccc1)NC(=O)O[C@H]1CCOC1)S(=O)(=O)c1ccc(N)cc1` [Amprenavir, amprenavir]: the “Percent Increase in Apparent Lopinavir Conc. above 5 μg/mL” value (shortened to “Percent Increase”) with Anti-(D2)2 [2] was 1%.

With `O=C1Nc2ccc(Cl)cc2[C@@](C#CC2CC2)(C(F)(F)F)O1` [Efavirenz, efavirenz], the “Percent Increase” value in the data set on Anti-(D2)2 [2] came to 0%.

For the compound `CC(C)(C)NC(=O)[C@@H]1CN(Cc2cccnc2)CCN1C[C@@H](O)C[C@@H](Cc1ccccc1)C(=O)N[C@H]1c2ccccc2C[C@H]1O` [Indinavir, indinavir], the “Percent Increase” value with Anti-(D2)2 [2] worked out at 0%.

On to `Cc1cccc(C)c1OCC(=O)N[C@@H](Cc1ccccc1)[C@@H](O)C[C@H](Cc1ccccc1)NC(=O)[C@H](C(C)C)N1CCCNC1=O` [Lopinavir, lopinavir], for which, in data set [3], the “Metabolism by liver microsomes” value was “metabolized very extensively and rapidly”. In addition, the “Reaction Rate” value came to 311.1 mA/min in the data set on Anti-(D2)2 [4] (Lopinavir 0.5 μg/mL); 338.9 mA/min in the data set with Anti-(D2)2 [4] (Lopinavir 1.0 μg/mL); 390.7 mA/min in the data set on Anti-(D2)2 [4] (Lopinavir 2.5 μg/mL); 427.0 mA/min in the data set on Anti-(D2)2 [4] (Lopinavir 5.0 μg/mL); 457.1 mA/min with Anti-(D2)2 [4] (Lopinavir 10.0 μg/mL).

Regarding `Cc1c(O)cccc1C(=O)N[C@@H](CSc1ccccc1)[C@H](O)CN1C[C@H]2CCCC[C@H]2C[C@H]1C(=O)NC(C)(C)C` [Nelfinavir, nelfinavir], in the data set on Anti-(D2)2 [2], the “Percent Increase” value is reported as 1%.

Take `CC(C)c1nc(CN(C)C(=O)N[C@H](C(=O)N[C@@H](Cc2ccccc2)C[C@H](O)[C@H](Cc2ccccc2)NC(=O)OCc2cncs2)C(C)C)cs1` [Ritonavir, ritonavir]: in the data set on Anti-(D2)2 [2], the “Percent Increase” value was found to be 0%.

`CC(C)(C)NC(=O)[C@@H]1C[C@@H]2CCCC[C@@H]2CN1C[C@@H](O)[C@H](Cc1ccccc1)NC(=O)[C@H](CC(N)=O)NC(=O)c1ccc2ccccc2n1` [Saquinavir, saquinavir]: the “Percent Increase” value in the data set with Anti-(D2)2 [2] is given as 1%.

`Cc1ccnc2c1NC(=O)c1cccnc1N2C1CC1` [nevirapine]: in data set [1], the “Fraction of the dose excreted in urine as parent compound” value was 2.7%; the “Mean plasma elimination half-life, NVP” value was 20.0 h; the “Parent compound share of circulating radioactivity” value is 75%.

For `CCC[C@@]1(CCc2ccccc2)CC(O)=C([C@H](CC)c2cccc(NS(=O)(=O)c3ccc(C(F)(F)F)cn3)c2)C(=O)O1` [tipranavir], the Plasma metabolic profile entry in data set [5] is “only the parent drug”. The “Metabolic stability in hepatocyte incubations” value in data set [6] is “stable”.
